In PubChem BioAssay (NCI):
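A five-concentration, 48-hour dose response in 96-well plates underlies each endpoint, interpolated linearly between surrounding concentrations. TGI is the concentration that stops growth completely.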

Legend:
Experiment in all cases: NCI anticancer screen, dose series, 48 h
[1] = test system: SF-539 CNS
[2] = test system: SK-MEL-2 melanoma
[3] = test system: LOX IMVI melanoma
[4] = test system: DMS 273 small cell lung
[5] = test system: HOP-62 NSCLC
[6] = test system: UACC-62 melanoma
[7] = test system: HCC-2998 colon
[8] = test system: SF-268 CNS
[9] = test system: OVCAR-4 ovarian
[10] = test system: UACC-257 melanoma
[11] = test system: TK-10 renal
[12] = test system: MOLT-4 leukemia
[13] = test system: IGROV1 ovarian
[14] = test system: CAKI-1 renal
[15] = test system: NCI-H522 lung
[16] = test system: ACHN renal
[17] = test system: SNB-75 CNS
[18] = test system: HCT-116 colon
[19] = test system: RXF 393 renal
[20] = test system: HT29 colon
[21] = test system: KM20L2 colon
[22] = test system: LXFL 529 NSCLC
[23] = test system: OVCAR-5 ovarian
[24] = test system: EKVX NSCLC
[25] = test system: KM12 colon
[26] = test system: NCI-H226 lung
[27] = test system: SNB-19 CNS
[28] = test system: CCRF-CEM leukemia
[29] = test system: PC-3 prostate
[30] = test system: A498 renal
[31] = test system: 786-0 renal
[32] = test system: SK-MEL-28 melanoma
[33] = test system: SW-620 colon
[34] = test system: XF 498 CNS
[35] = test system: U251 CNS
[36] = test system: MDA-MB-231 breast
[37] = test system: MDA-MB-435
[38] = test system: HOP-92 NSCLC
[39] = test system: COLO 205 colon
[40] = test system: DMS 114 small cell lung
[41] = test system: SK-MEL-5 melanoma
[42] = test system: MCF7 breast
[43] = test system: MDA-N
[44] = test system: SR leukemia
[45] = test system: UO-31 renal
[46] = test system: SF-295 CNS
[47] = test system: RPMI-8226 leukemia
[48] = test system: T-47D breast
[49] = test system: SK-OV-3 ovarian
[50] = test system: OVCAR-8 ovarian
[51] = test system: OVCAR-3 ovarian
[52] = test system: HOP-18 NSCLC
[53] = test system: NCI-H460 lung
[54] = test system: HS 578T breast
[55] = test system: BT-549 breast
[56] = test system: MALME-3M melanoma
[57] = test system: K-562 leukemia
[58] = test system: NCI-H23 lung
[59] = test system: A549 NSCLC
[60] = test system: HCT-15 colon
[61] = test system: DLD-1 colon
[62] = test system: M14 melanoma
[63] = test system: M19-MEL melanoma
[64] = test system: SN12C renal
[65] = test system: HL-60(TB) leukemia

SMILES: CC1=C(C(=O)Nc2ccccc2)C(c2ccc(C3C(C(=O)Nc4ccccc4)=C(C)NC(C)=C3C(=O)Nc3ccccc3)cc2)C(C(=O)Nc2ccccc2)=C(C)N1
- TGI [1]: 5.97 µM
- TGI [2]: 5.06 µM
- TGI [3]: 3.24 µM
- TGI [4]: 7.24 µM
- TGI [5]: 10.6 µM
- TGI [6]: 4.09 µM
- TGI [7]: 5.74 µM
- TGI [8]: 5.7 µM
- TGI [9]: 16.1 µM
- TGI [10]: 5.06 µM
- TGI [11]: 18.3 µM
- TGI [12]: 11.6 µM
- TGI [13]: 6.94 µM
- TGI [14]: 14.4 µM
- TGI [15]: 3.14 µM
- TGI [16]: 4.2 µM
- TGI [17]: 23.7 µM
- TGI [18]: 4.52 µM
- TGI [19]: 3.87 µM
- TGI [20]: 3.77 µM
- TGI [21]: 4.94 µM
- TGI [22]: 5.34 µM
- TGI [23]: 17.6 µM
- TGI [24]: 10.6 µM
- TGI [25]: 5.01 µM
- TGI [26]: 16 µM
- TGI [27]: 20.5 µM
- TGI [28]: 12 µM
- TGI [29]: 12.5 µM
- TGI [30]: 24 µM
- TGI [31]: 8.92 µM
- TGI [32]: 3.64 µM
- TGI [33]: 5.56 µM
- TGI [34]: 20.5 µM
- TGI [35]: 3 µM
- TGI [36]: 13.4 µM
- TGI [37]: 5.83 µM
- TGI [38]: 9.78 µM
- TGI [39]: 10.6 µM
- TGI [40]: 17.8 µM
- TGI [41]: 6.22 µM
- TGI [42]: 14.7 µM
- TGI [43]: 14.5 µM
- TGI [44]: 5.41 µM
- TGI [45]: 23.1 µM
- TGI [46]: 7.88 µM
- TGI [47]: 13.8 µM
- TGI [48]: 16.2 µM
- TGI [49]: 26.2 µM
- TGI [50]: 11.2 µM
- TGI [51]: 14.5 µM
- TGI [52]: 21.7 µM
- TGI [53]: 8.29 µM
- TGI [54]: 16.2 µM
- TGI [55]: 8.67 µM
- TGI [56]: 4.33 µM
- TGI [57]: > 53 µM
- TGI [58]: 8.65 µM
- TGI [59]: 21.8 µM
- TGI [60]: 9 µM
- TGI [61]: 8.15 µM
- TGI [62]: 6.46 µM
- TGI [63]: 22 µM
- TGI [64]: 4.71 µM
- TGI [65]: 7.21 µM
